In article PMC11212140, “Molecular Bidents with Two Electrophilic Warheads as a New Pharmacological Modality” (ACS Central Science, 2024):

What was measured:
Test in all cases: KiNativ profiling in H3255 cells
Format in all cases: cell-based, human
[1] = test system: T1, PKR; conditions: 2.5 µM
T1 construct: purchased ActivX Biosciences (KiNativ)
Procedure: (§1) treatment. Cell viability was determined by using CellTiter-Glo (Promega #G7571) according to the manufacturer’s instructions, measuring luminescence using an Envision plate-reader (PerkinElmer Inc.). Dose-response curves were generated using non-linear regression curve fit in GraphPad Prism 9.2.0(GraphPad Software).
(§2) Cellular target engagement assays
(§3) After 6 hours treatment, cells were pelleted, washed with PBS once and lysed with IP lysis buffer (25mMTris-HCl pH 7.4, 150mM NaCl, 1 mM EDTA, 1% NP-40 and 5% glycerol) (Thermo Fisher Scientific, Cat#87788) containing protease/phosphatase inhibitor cocktail (Roche). The protein concentrations were measured by BCA analysis (Pierce). Cell lysates were incubated with 1 μM of biotin conjugated probe (bio-Osimertinib or bio-ZNL-0013) at 4 ℃ overnight, and incubated for 3 more hours at room temperature. Lysates with probe were then incubated with streptavidin beads (Thermo Fisher, #20349) for 2 hours at 4 ℃. The protein-probe complexes on the beads were then subjected to immunoblotting.
(§4) H3255 cells were plated with 6.5x10^6 per condition in fresh media in 15 cm plates and treated the 80% confluency for 2 hours with DMSO or 2.5 μM of ZNL-0056. To harvest cells, plates were washed 3 times with cold PBS, then collected by scraping into 4 mL of cold PBS containing protease and phosphatase inhibitors. Cells were pelleted by centrifugation at 1350 g at 4 ℃ for 5 minutes and immediately frozen in liquid nitrogen. The frozen samples were sent to ActivX Biosciences (La Jolla, CA) for the remainder of the KiNativ profiling experiment4.
(§5) Protein expression and purification
(§6) Human EGFR kinase domain (residues 696-1022) with T790M and V948R mutations was cloned with an N-terminal, protease cleavable His -GST tag. Recombinant protein was expressed in SF9 insect cells using baculovirus generated from the pFastBac system (Thermo Fisher) .
(§7) Briefly, cells at a density of ~2x10^6 cells/mL were infected with 1% (v/v) virus stock and grown for ~72 hours before harvesting and freezing the cell pellet . Infected cells were lysed in buffer A (50 mM Tris pH 8.0, 500 mM NaCl, 5% glycerol, 0.5 mM Tris(2-carboxyethyl)phosphine [TCEP]), ultracentrifuged at >200,000 rcf for 1 h, and the supernatant flo wed through Ni-NTA resin by gravity. The resin was washed with buffer A supplemented with 40 mM imidazole by […]

[2] = test system: T2, SYK; conditions: 2.5 µM
T2 construct: purchased ActivX Biosciences (KiNativ)
Procedure: as §1, §2, §3, §4, §5, §6, §7

[3] = test system: T3, EGFR, EGFR-L858R; conditions: 2.5 µM
T3 construct: purchased ActivX Biosciences (KiNativ)
Procedure: as §1, §2, §3, §4, §5, §6, §7

[4] = test system: T4, PIP5K3; conditions: 2.5 µM; ATP; GGKSGAAFYATEDDRFILK
T4 construct: purchased ActivX Biosciences (KiNativ)
Procedure: as §1, §2, §3, §4, §5, §6, §7

[5] = test system: T5, MAP2K7; conditions: 2.5 µM; Lys2; DVKPSNILLDER
T5 construct: purchased ActivX Biosciences (KiNativ)
Procedure: as §1, §2, §3, §4, §5, §6, §7

[6] = test system: T6, GSK3A; conditions: 2.5 µM; Lys2; DIKPQNLLVDPDTAVLK
T6 construct: purchased ActivX Biosciences (KiNativ)
Procedure: as §1, §2, §3, §4, §5, §6, §7

[7] = test system: T7, STLK6; conditions: 2.5 µM; Lys1; HTPTGTLVTIKITNLENCNEER
T7 construct: purchased ActivX Biosciences (KiNativ)
Procedure: as §1, §2, §3, §4, §5, §6, §7

[8] = test system: ROCK1, ROCK2; conditions: 2.5 µM; Lys2; DVKPDNMLLDK
Procedure: as §1, §2, §3, §4, §5, §6, §7

[9] = test system: T8, PCTAIRE1; conditions: 2.5 µM; Lys1; SKLTDNLVALKEIR
T8 construct: purchased ActivX Biosciences (KiNativ)
Procedure: (§8) Cellular target engagement assays […]
as §4, with “experiment4. […]” for “experiment4.”

[10] = test system: T9, RSK1 domain1; conditions: 2.5 µM
T9 construct: RSK1 domain1; purchased ActivX Biosciences (KiNativ)
Procedure: as §8
as §4, with “experiment4. […]” for “experiment4.”

[11] = test system: T10, MAP2K2; conditions: 2.5 µM; Lys2; HQIMHRDVKPSNILVNSR
T10 construct: purchased ActivX Biosciences (KiNativ)
Procedure: as §8
as §4, with “experiment4. […]” for “experiment4.”

[12] = test system: T11, CDK10; conditions: 2.5 µM; Lys2; DLKVSNLLMTDK
T11 construct: purchased ActivX Biosciences (KiNativ)
Procedure: as §8
as §4, with “experiment4. […]” for “experiment4.”

[13] = test system: T12, SGK3; conditions: 2.5 µM; Lys1; FYAVKVLQK
T12 construct: purchased ActivX Biosciences (KiNativ)
Procedure: as §8
as §4, with “experiment4. […]” for “experiment4.”

[14] = test system: T13, PAN3; conditions: 2.5 µM, ATP
T13 construct: purchased ActivX Biosciences (KiNativ)
Procedure: as §8
as §4, with “experiment4. […]” for “experiment4.”

[15] = test system: SRPK1, SRPK2; conditions: 2.5 µM; Lys1; FVAMKVVK
Procedure: as §8
as §4, with “experiment4. […]” for “experiment4.”

[16] = test system: T14, NuaK2; conditions: 2.5 µM; Lys1; LVAIKSIR
T14 construct: purchased ActivX Biosciences (KiNativ)
Procedure: as §8
as §4, with “experiment4. […]” for “experiment4.”

[17] = test system: T15, ATR; conditions: 2.5 µM; ATP; FYIMMCKPK
T15 construct: purchased ActivX Biosciences (KiNativ)
Procedure: as §8
as §4, with “experiment4. […]” for “experiment4.”

[18] = test system: T16, PKD2; conditions: 2.5 µM; Lys1; DVAVKVIDK
T16 construct: purchased ActivX Biosciences (KiNativ)
Procedure: as §8
as §4, with “experiment4. […]” for “experiment4.”

[19] = test system: MSK1 domain1, MSK2 domain1; conditions: 2.5 µM; ATP Loop; VLGTGAYGKVFLVR
Procedure: as §8
as §4, with “experiment4. […]” for “experiment4.”

[20] = test system: MST3, MST4, YSK1; conditions: 2.5 µM; Activation Loop; LADFGVAGQLTDTQIKR
Procedure: as §8
as §4, with “experiment4. […]” for “experiment4.”

[21] = test system: T17, DNAPK; conditions: 2.5 µM, ATP
T17 construct: purchased ActivX Biosciences (KiNativ)
Procedure: as §8
as §4, with “experiment4. […]” for “experiment4.”

[22] = Activation Loop, IGDFGLVTSLKNDGKR
[23] = Activation Loop, LTDFGLSKEAIDHEKK

SMILES | Inhibition [1, 22] [%] | Inhibition ([1]; Lys2, DLKPSNIFLVDTK) [%] | Inhibition ([2]; Activation Loop, ISDFGLSKALR) [%] | Inhibition ([2]; Lys1, TVAVKILK) [%] | Inhibition ([3]; Lys1, IPVAIKELR) [%] | Inhibition [4] [%] | Inhibition [5] [%] | Inhibition [6] [%] | Inhibition [7] [%] | Inhibition [8] [%] | Inhibition [9] [%] | Inhibition [10, 23] [%] | Inhibition ([10]; Lys1, KVTRPDSGHLYAMKVLK) [%] | Inhibition [11] [%] | Inhibition [12] [%] | Inhibition [13] [%] | Inhibition ([14]; IQKSSNFGYITSCYK) [%] | Inhibition ([14]; VMDPTKILITGK) [%] | Inhibition [15] [%] | Inhibition [16] [%] | other results
C=CC(=O)Nc1cc(Nc2nccc(-c3cn(C)c4ccccc34)n2)c(OC)cc1N(C)CCN(C)C [Osimertinib, osimertinib, reference compound] | -12.9 | 6.2 | -19.6 | -0.9 | 96.8 | 49.0 | -1.4 | -5.2 | 12.6 | -1.6 | -20.8 | -14.9 | -11.7 | 12.1 | 40.2 | 2.9 | 10.9 | 3.7 | 21.8 | -2.3 | Inhibition ([3]; Activation Loop, […]): 90.8%; Inhibition [17]: -16.2%; Inhibition [18]: -2.1%; Inhibition [19]: -40.8%; Inhibition [20]: -4.8%; Inhibition ([21]; EHPFLVKGGEDLR): 29.9%; Inhibition ([21]; KGGSWIQEINVAEK): 7.8%
C=CC(=O)Nc1cc(C(=O)Nc2nc3cccc(C)c3n2[C@@H]2CCCCN(C(=O)C=C)C2)cs1 [ZNL-0056] | 11.7 | 0.451 | 4.4 | 4.7 | 94.3 | 20.7 | 90.7 | 11.5 | 16.7 | -10.4 | -1.5 | 5.8 | -35.1 | 5.5 | 23.6 | 10.1 | -8.7 | 10.8 | -8.1 | 1.9 | Inhibition ([3]; Activation Loop, LLGAEEKEYHAEGGKVPIK): 83.2%; Inhibition [17]: 18.0%; Inhibition [18]: 10.2%; Inhibition [19]: 15.3%; Inhibition [20]: 12.7%; Inhibition ([21]; EHPFLVKGGEDLR): 26.5%; Inhibition ([21]; KGGSWIQEINVAEK): -18.3%
